Laboratory results as given in US20060194217A1, “Method of genotyping and phenotyping hepatitis B viruses resistant to antiviral molecules” (priority 2005, published 2006).

Legend:
[1] = system: reference HBV, genotype D, ayw serotype, wild-type phenotype; experiment: High throughput phenotyping assay, HBV genomic amplicon transfected, viral DNA by real time PCR: referent virus; format: cell-based; settings: Hepatitis B virus, 96 h, Referent virus (genotype D, ayw, without known mutation), 4 days treatment
Procedure: In addition to the 6 samples analysed, a control was included. This control is a genome of the reference HBV, genotype D, having an ayw serotype and a wild-type phenotype for all the drugs studied. This genome was amplified by the same technique as the samples analysed using a plasmid.
(§1) An amplification of the whole genomes by the method of the invention including the Nar I site was carried out and the amplicons obtained were purified by means of a silica column (Qiagen kit, Qiaquick purification kit).
(§2) The amplicons were then digested with the Nar I enzyme and purified by the same method as above.
(§3) These amplicons were transfected, in a culture format comprising a 25 cm^2 flask seeded the day before at a density of 5.2×10^4 cells/cm^2, with 200 to 400 ng of amplicon/cm^2.
After 60 hours, the cells were trypsinized and then treated with DNAse. […]
(§4) This denaturation step was then stopped by adding a neutralizing buffer, 15 μl of 1M Tris at pH 7, and the solution thus obtained was subjected to a dilution before quantification by real time PCR. […]
(§5) The viral DNA extracted was then quantified by means of real time PCR quantification method.
(§6) This HBV production quantification step can be directly carried out after the preceding step, without any need to purify or concentrate the cell lysates to be assayed. […] (quantification step), and a final extension of one minute at 63° C. […]

[2] = system: HBV quasi-species of patient sample N° 3; experiment: High throughput phenotyping assay: patient sample N° 3; format: cell-based, hepatitis B virus; settings: for IC50: Hepatitis B virus, 96 h, sample N° 3, D0 3TC, naïve, INNO LiPA wt, 4 days treatment; for Increase in resistance: sample N° 3, IC50 compared with referent virus
Procedure: (§7) The DNA from 1 ml of serum was extracted using the QIAamp Ultrasens Virus kit (Qiagen), and was taken up in 60 μl of water.
as §1, §2, §3
(§8) After 60 hours, the cells were trypsinized and then treated with DNAse. After trypsinization, the cells were taken up in culture medium supplemented 50/50 with the two-times concentrated DNAse buffer (50 mM Tris, 1 mM CaCl2, 5 mM MgCl2, pH 8, 400 μg/ml of DNAse I) containing DNAse I, and incubated for 45 min at 37°. After pelleting, the cells were taken up in culture medium and distributed into 96-well culture plates coated (BioCoat) with collagen at a density of 6×10^4 cells/cm^2 in a volume corresponding to half the final volume used for the treatment with the drugs to be tested. This volume was completed with the 2-times concentration range of the drugs studied (Lamivudine and Adefovir)
(§9) The ranges used were from 100 to 0.01 μM for Lamivudine and from 100 to 6.25 μM for Adefovir. These cultures were treated with these dilutions for 4 days.
(§10) At the end of these 4 days of treatment, the viral DNA was extracted.
(§11) This step was carried out after washing the cells with PBS and adding the extraction buffer, i.e. 50 μl per 30 mm^2 (96-well format) (25 mM Tris, 0.5 mM CaCl2, 2.5 mM MgCl2, pH 8, 0.4 mg/ml DNAse, 0.4 mg/ml RNAse, 1% NP40). The lysis lasted one hour at 37° C. with agitation on a Heidolph Titramax 1000 plate mixer at a rotation rate of about 1050 rpm.
(§12) After this step of lysis and of digestion with DNAse and RNAse, the viral DNA produced during the culturing remains protected in the viral capsids. […]
as §4, §5, §6
(§13) For each plate assayed, a standard curve of 10^6 to 10^2 HBV copies/reaction was quantified in parallel. […]

[3] = system: HBV quasi-species of patient sample N° 5; experiment: High throughput phenotyping assay: patient sample N° 5; format: cell-based, hepatitis B virus; settings: for IC50: Hepatitis B virus, 96 h, sample N° 5, D0 3TC, naïve, INNO LiPA wt, 4 days treatment; for Increase in resistance: sample N° 5, IC50 compared with referent virus
Procedure: as §7, §1, §2, §3, §8, §9, §10, §11, §12, §4, §5, §6, §13

[4] = system: HBV quasi-species of patient sample N° 7; experiment: High throughput phenotyping assay: patient sample N° 7; format: cell-based, hepatitis B virus; settings: for IC50: Hepatitis B virus, 96 h, sample N° 7, M18 3TC, INNO LiPA L80V M204I, 4 days treatment; for Increase in resistance: sample N° 7, IC50 compared with referent virus
Procedure: as §7, §1, §2, §3, §8, §9, §10, §11, §12, §4, §5, §6, §13

[5] = system: HBV quasi-species of patient sample N° 17; experiment: High throughput phenotyping assay: patient sample N° 17; format: cell-based, hepatitis B virus; settings: for IC50: Hepatitis B virus, 96 h, sample N° 17, M24 3TC, INNO LiPA L180M ± M204I, 4 days treatment; for Increase in resistance: sample N° 17, IC50 compared with referent virus
Procedure: as §7, §1, §2, §3, §8, §9, §10, §11, §12, §4, §5, §6, §13

[6] = system: HBV quasi-species of patient sample N° 19; experiment: High throughput phenotyping assay: patient sample N° 19; format: cell-based, hepatitis B virus; settings: for IC50: Hepatitis B virus, 96 h, sample N° 19, M24 3TC M3 PMEA, INNO LiPA L180M A181V, 4 days treatment; for Increase in resistance: IC50 compared with referent virus
Procedure: as §7, §1, §2, §3, §8, §9, §10, §11
After this step of lysis and of digestion with DNAse and RNAse, the viral DNA produced during the culturing remains protected in the viral capsids. This DNA was then extracted by denaturation of the viral capsids by means of alkalinization of the extraction buffer by addition of NaOH, i.e. 15 μl of a 0.4M solution per 50 μl of extraction buffer. This denaturation was carried out at 37° C. for 30 min under the same agitation conditions as during the treatment with DNAse, i.e. on a Heidolph Titramax 1000 plate mixer at a rotation rate of about 1050 rpm.
This denaturation step was then stopped by adding a neutralizing buffer, 15 μl of 1M Tris at pH 7, and the solution thus obtained was subjected to a dilution before quantification by real time PCR. The final dilution is ⅕ relative to the initial volume of extraction buffer, i.e. an addition of 170 μl of water in a 96-well format.
as §5
This HBV production quantification step can be directly carried out after the preceding step, without any need to purify or concentrate the cell lysates to be assayed. The real time PCR can be carried out in the same format as the culture format, i.e. a 96-well format on the Biorad MyiQ device, using the real time kit and the consumables suitable for this device, i.e. the iQ™ Sybr® Green Supermix two-times concentrated PCR mix. […] (quantification step), and a final extension of one minute at 63° C. […]
as §13

[7] = system: HBV quasi-species of patient sample N° 21; experiment: High throughput phenotyping assay: patient sample N° 21; format: cell-based, hepatitis B virus; settings: for IC50: Hepatitis B virus, 96 h, sample N° 21, D0 3TC, naïve, INNO LiPA wt, 4 days treatment; for Increase in resistance: sample N° 21, IC50 compared with referent virus
Procedure: as §7, §1, §2, §3, §8, §9, §10, §11, §12, §4, §5, §6, §13

HBV = settings: cited from earlier work

Molecule | IC50 [1] | IC50 [2] | Increase in resistance [2] | IC50 [3] | Increase in resistance [3] | IC50 [4] | Increase in resistance [4] | IC50 [5] | Increase in resistance [5] | IC50 [6] | in vitro phenotype ([6]; sample N° 19) | Increase in resistance ([6]; sample N° 19) | IC50 [7] | Increase in resistance [7] | chronic carriers that it is possible to treat (HBV)
Nc1ncnc2c1ncn2CCOCP(=O)(O)O [Adefovir] | 8 µM | 9 µM | 1.1 | 8 µM | 1 | 13.5 µM | 1.7 | 14 µM | 1.75 | 52 µM | doubly resistant | 6.5 | 14.5 µM | 1.8 | 
Nc1ccn([C@@H]2CS[C@H](CO)O2)c(=O)n1 [Lamivudine] | 0.1 µM | 0.7 µM | 7 | 0.2 µM | 2 | > 100 µM | >1000 | > 100 µM | >1000 | 40 µM |  | 400 | 0.14 µM | 1.4 | 
alpha-interferon |  |  |  |  |  |  |  |  |  |  |  |  |  |  | approximately 40%
